The values below come from patent publication US9513294B2, “Megastokes amino-triazolyl-BODIPY compounds and applications to live neuron staining and human serum albumin FA1 drug site probing” (National University of Singapore, priority 2012, dated 2016).

Data set [1] in a line: Absorbance and fluorescence emission spectra (SpectraMax M2). In kind it is physicochemical. The following applies: for λmax Abs. (nm) / λmax Em. (nm): MKAC compound library; for λmax Abs. (nm) / λmax Absorp. (nm): absorbance maximum; for λmax Em. (nm) / λmax Emission (nm): fluorescence emission maximum; for λmax Absorp. (nm) / λmax Emission (nm): MKCA compound library. The method in brief:
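Absorbance and emission maxima measured on a SpectraMax M2 spectrophotometer, which also gave quantum yield data; analysis in GraphPrism.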

Data set [2] is described as follows: Quantum yield measurements versus Acridine Yellow in EtOH. The class given is physicochemical. The following applies: for φ (quantum yield): excitation 460 nm; for φ (%): quantum yield. The gist of the method:
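Fluorescence quantum yield is relative to Acridine Yellow in EtOH (Φ 0.47), with excitation at 460 nm. Integrated emission at 510–700 nm was corrected for absorbance at the excitation wavelength and for solvent refractive index.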

As to `CCCCc1ccc(-c2cn(-c3ccc4n3[B-](F)(F)[N+]3=C(N5CCCCC5)C=CC3=C4c3ccc(N)cc3)nn2)cc1` [BDC-12], in data set [1] (BDC library, Table 2), the “λmax Absorp.” value stood at 473 nm and the “λmax Emission” value stood at 594 nm. Also, the “φ (quantum yield)” value in data set [2] (BDC library, Table 2) is 0.09%.

On to `CC(=O)Nc1ccc(C2=C3C=CC(N4CC(C)OC(C)C4)=[N+]3[B-](F)(F)n3c2ccc3-n2cc(CC3CCCCC3)nn2)cc1` (stereo not drawn) [MKAC20-8], for which, in data set [1], the “λmax Abs. (nm)” value was determined as 466 nm and the “λmax Em. (nm)” value is listed as 583 nm. Further, in data set [2] (MKAC compound library), the “φ (%)” value worked out at 4.98%.

On to `Nc1ccc(C2=C3C=CC(N4CCCCC4)=[N+]3[B-](F)(F)n3c2ccc3-n2cc(COc3ccccc3)nn2)cc1` [BDC-17], for which, in data set [1] (BDC library, Table 2), the “λmax Absorp.” value is 474 nm and the “λmax Emission” value is listed as 591 nm. In data set [2] (BDC library, Table 2), the “φ (quantum yield)” value was 0.11%.

For the compound `CCCCCC(O)c1cn(-c2ccc3n2[B-](F)(F)[N+]2=C(N4CCc5ccccc5C4)C=CC2=C3c2ccc(NC(=O)CCl)cc2)nn1` (stereo not drawn) [MKCA66-69], in data set [1], the “λmax Absorp. (nm)” value stood at 469 nm and the “λmax Emission (nm)” value turned out to be 586 nm. Further, in data set [2] (MKCA compound library), the “φ (%)” value was 3.38%.

Consider `CCCCCCCCCCc1cn(-c2ccc3n2[B-](F)(F)[N+]2=C(N4CCCCC4)C=CC2=C3c2ccc(N)cc2)nn1` [BDC-49], for which, in data set [1] (BDC library, Table 2), the “λmax Absorp.” value was determined as 475 nm and the “λmax Emission” value stood at 589 nm. The “φ (quantum yield)” value in data set [2] (BDC library, Table 2) is listed as 0.12%.

In the case of `CC(C)Cc1cn(-c2ccc3n2[B-](F)(F)[N+]2=C(N4CC(C)OC(C)C4)C=CC2=C3c2ccc(NC(=O)CCl)cc2)nn1` (stereo not drawn) [MKCA20-43], in data set [1], the “λmax Absorp. (nm)” value worked out at 468 nm and the “λmax Emission (nm)” value is 585 nm. Besides, the “φ (%)” value in data set [2] (MKCA compound library) is listed as 2.19%.

For `CCOc1ccccc1CNC1=[N+]2C(=C(c3ccc(N)cc3)c3ccc(-n4cc(CO)nn4)n3[B-]2(F)F)C=C1` [MK103-70], in data set [1] (MK library, Table 5), the “λmax Absorp.” value is on record as 472 nm and the “λmax Emission” value stood at 562 nm. Also, in data set [2] (MK library, Table 5), the “φ (quantum yield)” value is 1.93%.

Consider `CCCC(C)c1cn(-c2ccc3n2[B-](F)(F)[N+]2=C(NCc4cc(F)cc(F)c4)C=CC2=C3c2ccc(NC(=O)CCl)cc2)nn1` (stereo not drawn) [MKCA412-3], for which, in data set [1], the “λmax Absorp. (nm)” value is 467 nm and the “λmax Emission (nm)” value amounted to 563 nm. Besides, the “φ (%)” value in data set [2] (MKCA compound library) came out at 41.81%.

For `CCCCc1cn(-c2ccc3n2[B-](F)(F)[N+]2=C(N4CCCCC4)C=CC2=C3c2ccc(NC(C)=O)cc2)nn1` [BDCAC-42], in data set [1] (BDCAC library, Table 3), the “λmax Absorp.” value amounted to 467 nm and the “λmax Emission” value was found to be 577 nm. Further, the “φ (quantum yield)” value in data set [2] (BDCAC library, Table 3) amounted to 1.3%.

Take `CC1CN(C2=[N+]3C(=C(c4ccc(N)cc4)c4ccc(-n5cc(C6CC6)nn5)n4[B-]3(F)F)C=C2)CC(C)O1` (stereo not drawn) [MK20-4]: in data set [1] (MK library, Table 5), the “λmax Absorp.” value came to 476 nm and the “λmax Emission” value worked out at 564 nm. Further, in data set [2] (MK library, Table 5), the “φ (quantum yield)” value amounted to 0.50%.

Regarding `CC1CN(C2=[N+]3C(=C(c4ccc(NC(=O)CCl)cc4)c4ccc(-n5cc(CO)nn5)n4[B-]3(F)F)C=C2)CC(C)O1` (stereo not drawn) [MKCA20-70], in data set [1], the “λmax Absorp. (nm)” value worked out at 469 nm and the “λmax Emission (nm)” value was found to be 587 nm. In addition, the “φ (%)” value in data set [2] (MKCA compound library) was 2.64%.

Consider `CN(Cc1ccccc1)C1=[N+]2C(=C(c3ccc(NC(=O)CCl)cc3)c3ccc(-n4cc(CC5CCCCC5)nn4)n3[B-]2(F)F)C=C1` [MKCA195-8], for which, in data set [1], the “λmax Absorp. (nm)” value was 465 nm and the “λmax Emission (nm)” value was 581 nm. Further, the “φ (%)” value in data set [2] (MKCA compound library) was 6.17%.

For the compound `CCCCCCCCc1cn(-c2ccc3n2[B-](F)(F)[N+]2=C(N4CCCCC4)C=CC2=C3c2ccc(NC(C)=O)cc2)nn1` [BDCAC-44], in data set [1] (BDCAC library, Table 3), the “λmax Absorp.” value came out at 468 nm and the “λmax Emission” value is reported as 581 nm. In data set [2] (BDCAC library, Table 3), the “φ (quantum yield)” value worked out at 0.8%.

As to `CCCCCC(O)c1cn(-c2ccc3n2[B-](F)(F)[N+]2=C(NCc4cc(F)cc(F)c4)C=CC2=C3c2ccc(NC(=O)CCl)cc2)nn1` (stereo not drawn) [MKCA412-69], in data set [1], the “λmax Absorp. (nm)” value was 465 nm and the “λmax Emission (nm)” value is listed as 562 nm. For the same compound, in data set [2] (MKCA compound library), the “φ (%)” value was determined as 30.05%.

As to `CCCC(C)c1cn(-c2ccc3n2[B-](F)(F)[N+]2=C(NCc4cc(OC)ccc4OC)C=CC2=C3c2ccc(NC(C)=O)cc2)nn1` (racemic) [MKAC181-3], in data set [1], the “λmax Abs. (nm)” value came out at 465 nm and the “λmax Em. (nm)” value turned out to be 562 nm. Also, the “φ (%)” value in data set [2] (MKAC compound library) came out at 15.41%.

Turning to `CC(C)Cc1cn(-c2ccc3n2[B-](F)(F)[N+]2=C(N4CC(C)OC(C)C4)C=CC2=C3c2ccc(N)cc2)nn1` (stereo not drawn) [MK20-43], in data set [1] (MK library, Table 5), the “λmax Absorp.” value is listed as 478 nm and the “λmax Emission” value is listed as 584 nm. Besides, the “φ (quantum yield)” value in data set [2] (MK library, Table 5) is reported as 0.23%.

Take `COc1ccc(OC)c(CNC2=[N+]3C(=C(c4ccc(NC(C)=O)cc4)c4ccc(-n5cc(CO)nn5)n4[B-]3(F)F)C=C2)c1` [MKAC181-70]: in data set [1], the “λmax Abs. (nm)” value turned out to be 465 nm and the “λmax Em. (nm)” value turned out to be 559 nm. Moreover, the “φ (%)” value in data set [2] (MKAC compound library) was determined as 15.37%.

Regarding `CN(Cc1ccccc1)C1=[N+]2C(=C(c3ccc(N)cc3)c3ccc(-n4cc(CC5CCCCC5)nn4)n3[B-]2(F)F)C=C1` [MK195-8], in data set [1] (MK library, Table 5), the “λmax Absorp.” value is given as 476 nm and the “λmax Emission” value is 579 nm. Further, in data set [2] (MK library, Table 5), the “φ (quantum yield)” value came to 0.36%.

For the compound `O=C(CCl)Nc1ccc(C2=C3C=CC(N4CCCCC4)=[N+]3[B-](F)(F)n3c2ccc3-n2cc(C3(O)CCCC3)nn2)cc1` [BDCCA-67], in data set [1] (BDCCA library, Table 4), the “λmax Absorp.” value is listed as 468 nm and the “λmax Emission” value came out at 590 nm. Besides, the “φ (quantum yield)” value in data set [2] (BDCCA library, Table 4) is reported as 0.7%.

Regarding `CC(=O)Nc1ccc(C2=C3C=CC(N(C)Cc4ccccc4)=[N+]3[B-](F)(F)n3c2ccc3-n2cc(CN(C)Cc3ccccc3)nn2)cc1` [MKAC195-18], in data set [1], the “λmax Abs. (nm)” value stood at 465 nm and the “λmax Em. (nm)” value is 575 nm. The “φ (%)” value in data set [2] (MKAC compound library) was found to be 1.85%.

Consider `CC(C)Cc1cn(-c2ccc3n2[B-](F)(F)[N+]2=C(N4CCCC4)C=CC2=C3c2ccc(N)cc2)nn1` [MK215-43], for which, in data set [1] (MK library, Table 5), the “λmax Absorp.” value stood at 471 nm and the “λmax Emission” value was determined as 571 nm. Moreover, in data set [2] (MK library, Table 5), the “φ (quantum yield)” value is 0.33%.

With `CCCCCC(O)c1cn(-c2ccc3n2[B-](F)(F)[N+]2=C(NCc4ccccc4OCC)C=CC2=C3c2ccc(NC(=O)CCl)cc2)nn1` (stereo not drawn) [MKCA103-69], in data set [1], the “λmax Absorp. (nm)” value came to 465 nm and the “λmax Emission (nm)” value came to 562 nm. For the same compound, the “φ (%)” value in data set [2] (MKCA compound library) turned out to be 33.49%.

On to `O=C(CCl)Nc1ccc(C2=C3C=CC(N4CCCCC4)=[N+]3[B-](F)(F)n3c2ccc3-n2cc(C3CC3)nn2)cc1` [BDCCA-4], for which, in data set [1] (BDCCA library, Table 4), the “λmax Absorp.” value is 467 nm and the “λmax Emission” value amounted to 577 nm. Further, the “φ (quantum yield)” value in data set [2] (BDCCA library, Table 4) was 1.1%.

Consider `CC(=O)Nc1ccc(C2=C3C=CC(N(C)Cc4ccccc4)=[N+]3[B-](F)(F)n3c2ccc3-n2cc(CO)nn2)cc1` [MKAC195-70], for which, in data set [1], the “λmax Abs. (nm)” value was found to be 464 nm and the “λmax Em. (nm)” value was 579 nm. In data set [2] (MKAC compound library), the “φ (%)” value is 1.67%.

On to `CCOc1ccccc1CNC1=[N+]2C(=C(c3ccc(NC(C)=O)cc3)c3ccc(-n4cc(CC5CCCCC5)nn4)n3[B-]2(F)F)C=C1` [MKAC103-8], for which, in data set [1], the “λmax Abs. (nm)” value came out at 465 nm and the “λmax Em. (nm)” value is given as 562 nm. The “φ (%)” value in data set [2] (MKAC compound library) is 25.32%.

For the compound `CCCCCC(O)c1cn(-c2ccc3n2[B-](F)(F)[N+]2=C(N4CCCC4)C=CC2=C3c2ccc(N)cc2)nn1` (stereo not drawn) [MK215-69], in data set [1] (MK library, Table 5), the “λmax Absorp.” value stood at 470 nm and the “λmax Emission” value is given as 580 nm. The “φ (quantum yield)” value in data set [2] (MK library, Table 5) worked out at 0.33%.
